Measured values taken from patent publication US20210290788A1, “RADIOIMMUNOCONJUGATES AND DNA DAMAGE AND REPAIR INHIBITOR COMBINATION THERAPY” (Fusion Pharmaceuticals Inc., priority 2018, published 2021).

Legend:
[1] = test system: Colo-205 (colorectal cancer) xenograft model; assay: Example 5 in vivo synergy study, olaparib dosing schedule 2, Colo-205 xenograft; details: FPI-1434 50 nCi, olaparib 50 mg/kg i.p. 5 days on, 2 days off for 28 days, first dose 24 hours after FPI-1434, up to 28 days
Method: Combination groups (n=5) were dosed with olaparib (i.p.) 5 days on, 2 days off, using a 50 mg/kg dose for 28 days. The first dose of olaparib was administered 24 hours following FPI-1434 administration.
(§1) Relative tumor volume was evaluated up to 28 days after administration.

[2] = test system: Colo-205 (colorectal cancer) xenograft model; assay: Example 4 in vivo synergy study, olaparib dosing schedule 1, Colo-205 xenograft; details: [225Ac]-FPI-1434 50 nCi, olaparib 50 mg/kg i.p. 5 days on, 2 days off for 28 days, pre-dosed 3 times prior to FPI-1434, up to 28 days
Method: (§2) Combination groups (n=5) were dosed with olaparib (i.p.) 5 days on, 2 days off, using a 50 mg/kg dose for 28 days. Animals were pre-dosed with olaparib 3 times prior to the [^225Ac]-FPI-1434 administration.
as §1

[3] = test system: Colo-205 (colorectal cancer) xenograft model; assay: Example 6 in vivo combination study at multiple dose levels, Colo-205 xenograft; details: lower effective doses: [225Ac]-FPI-1434 20 nCi, olaparib 25 mg/kg i.p. 5 days on, 2 days off from 24 hours after FPI-1434 until day 30
Method: An in vivo study was conducted with [^225Ac]-FPI-1434 and olaparib in a Colo-205 (colorectal cancer) xenograft model, with [^225Ac]-FPI-1434 administered at a dose of 20 nCi, 50 nCi, or 100 nCi. In combination groups (n=5), animals were dosed with olaparib (i.p.) starting at 24 hours after [^225Ac]-FPI-1434 administration according to a 5 days on, 2 days off schedule using 25 or 50 mg/kg doses until day 30 after [^225Ac]-FPI-1434 administration (“day 0”).
Relative tumor volume was evaluated at various time points after administration. […] FIG. 13A-13C show results using 20 nCi (FIG. 13A), 50 nCi (FIG. 13B), or 100 nCi (FIG. 13C) [^225Ac]-FPI-1434 with olaparib (25 mg/kg or 50 mg/kg).

[4] = test system: A549 (NSCLC) xenograft model; assay: Example 4 in vivo synergy study, olaparib dosing schedule 1, A549 xenograft; details: [225Ac]-FPI-1434 200 nCi, olaparib 50 mg/kg i.p. 5 days on, 2 days off for 28 days, pre-dosed 3 times prior to FPI-1434, up to 28 days
Method: as §2

y-H2AX foci = assay: Example 3 immunohistochemical analysis of y-H2AX foci; type: in vivo; details: after olaparib treatment; Colo-205 and A549 xenograft study
Method: (§3) An in vivo efficacy study was conducted with olaparib alone as a single agent. Olaparib was given as a single agent at different doses in a Colo-205 (colorectal cancer) xenograft model and in an A549 (NSCLC) xenograft model. Groups of animals (n=5) were dosed with olaparib (i.p.) 5 days on, 2 days off using 10-100 mg/kg doses.

[5] = test system: Colo-205 (colorectal cancer) xenograft model; assay: Example 3 in vivo efficacy of olaparib as single agent, Colo-205 xenograft
Method: as §3

[6] = test system: A549 (NSCLC) xenograft model; assay: Example 3 in vivo efficacy of olaparib as single agent, A549 xenograft
Method: as §3

[7] = olaparib i.p. 5 days on, 2 days off, 10-100 mg/kg

## O=C(c1cc(Cc2n[nH]c(=O)c3ccccc23)ccc1F)N1CCN(C(=O)C2CC2)CC1 [olaparib]
[1]
  Relative tumor volume: significant reduction in tumor volume overtime
[2]
  Relative tumor volume: some reduction in tumor volume over time
[3]
  Relative tumor volume: no or limited therapeutic effect
[4]
  Relative tumor volume: no apparent difference in tumor volume over time
y-H2AX foci
  DSB formation (y-H2AX foci, immunohistochemical analysis): no increase in DSB formation
[5]; olaparib 10-100 mg/kg doses
  Dose response of tumor volume effect: did not appear to be a dose response
[5]; [7]
  Relative tumor volume (efficacy as a single agent): modest efficacy as a single agent
[6]; olaparib 10-100 mg/kg doses
  Dose response of tumor volume effect: did not appear to be a dose response
[6]; [7]
  Relative tumor volume (efficacy as a single agent): modest efficacy as a single agent
